# Experiments:
# HIV-1 BaL [1] = test: trans-infection of CD4+ T lymphocytes by B-THP-1/DC-SIGN cells exposed to virus in continued presence of inhibitor, p24 ELISA
# [2] = molecular target: T1, dendritic cell receptor DC-SIGN (Homo sapiens, UniProt Q9NNX6); conditions: Reina et al. 2007; cited from earlier work
# T1 sequence (Q9NNX6 1-404): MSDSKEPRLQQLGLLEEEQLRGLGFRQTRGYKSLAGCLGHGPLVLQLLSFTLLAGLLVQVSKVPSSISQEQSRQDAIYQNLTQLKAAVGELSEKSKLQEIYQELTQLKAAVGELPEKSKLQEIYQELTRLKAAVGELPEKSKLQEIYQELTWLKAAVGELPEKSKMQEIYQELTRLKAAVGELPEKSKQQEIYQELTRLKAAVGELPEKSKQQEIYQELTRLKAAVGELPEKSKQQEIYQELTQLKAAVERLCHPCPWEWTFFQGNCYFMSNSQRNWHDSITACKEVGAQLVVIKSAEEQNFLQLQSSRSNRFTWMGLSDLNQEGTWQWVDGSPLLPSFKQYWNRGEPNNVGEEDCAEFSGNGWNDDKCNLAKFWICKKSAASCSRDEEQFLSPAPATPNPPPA
# Ebola virus = Ebola virus infection model; Reina et al. 2007; cited from earlier work
# HIV-1 BaL [3] = test: trans-infection assay, B-THP-1/DC-SIGN cells incubated with inhibitor and washed before adding the virus; conditions: 5 mM, cells washed with buffer before adding virus (BaL); Figure 3
compound,measurement,setting,value
OC[C@H]1OC(O)[C@@H](O)[C@@H](O)[C@@H]1O (some centres unmarked) [Man4],activity at 100 µM,"HIV-1 BaL [1]; Human immunodeficiency virus 1, BAL, CD4+ T, read-out: infection level",≥ 30%
COC(=O)[C@H]1C[C@H](OCCN=[N+]=[N-])[C@@H](O[C@H]2O[C@H](CO)[C@@H](O)[C@H](O)[C@@H]2O)C[C@@H]1C(=O)OC [compound 1],binding to DC-SIGN,[2],binds
same,anti-infective action,Ebola virus,moderate anti-infective action
"COC(=O)[C@H]1C[C@H](OC[C@H]2O[C@H](OCCN=[N+]=[N-])[C@@H](O)[C@@H](O)[C@@H]2O)[C@@H](O[C@H]2O[C@H](CO)[C@@H](O)[C@H](O)[C@@H]2O)C[C@@H]1C(=O)OC [compound 2b, α(1,2)α(1,6)pseudomannotriose]",antiinfective activity in the trans-infection assay,HIV-1 BaL [3],no antiinfective activity
same,"concentration needed to reach a similar inhibition level, compared with 12","HIV-1 BaL [1]; HIV-1 BaL, Figure 2",much higher concentration
